Laboratory results as given in US12473304B2, “Heterocyclic PAD4 inhibitors” (BRISTOL-MYERS SQUIBB COMPANY, priority 2020, dated 2025).

Molecular target: human PAD4 (hPAD4) (Homo sapiens (Human), UniProt Q9UM07)
Assay: RFMS Human PAD4 Functional Assay 1
Assay type: biochemical
Conditions: RFMS assay 1; 5 nM hPAD4, 250 μM BAEE substrate, 50 μM calcium, 37° C.
How it was run: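 Recombinant hPAD4 (5 nM) was preincubated with compound (top 50 μM, 0.5% DMSO) for 30 min at 37 °C, then reacted with 250 μM BAEE for 90 min at 37 °C in pH 7.5 HEPES buffer with 50 μM calcium and 5 μM TPEN. Product was derivatized with phenyl glyoxal and quantified by RapidFire MS.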

Chain of human PAD4 (hPAD4) (Q9UM07 whole entry): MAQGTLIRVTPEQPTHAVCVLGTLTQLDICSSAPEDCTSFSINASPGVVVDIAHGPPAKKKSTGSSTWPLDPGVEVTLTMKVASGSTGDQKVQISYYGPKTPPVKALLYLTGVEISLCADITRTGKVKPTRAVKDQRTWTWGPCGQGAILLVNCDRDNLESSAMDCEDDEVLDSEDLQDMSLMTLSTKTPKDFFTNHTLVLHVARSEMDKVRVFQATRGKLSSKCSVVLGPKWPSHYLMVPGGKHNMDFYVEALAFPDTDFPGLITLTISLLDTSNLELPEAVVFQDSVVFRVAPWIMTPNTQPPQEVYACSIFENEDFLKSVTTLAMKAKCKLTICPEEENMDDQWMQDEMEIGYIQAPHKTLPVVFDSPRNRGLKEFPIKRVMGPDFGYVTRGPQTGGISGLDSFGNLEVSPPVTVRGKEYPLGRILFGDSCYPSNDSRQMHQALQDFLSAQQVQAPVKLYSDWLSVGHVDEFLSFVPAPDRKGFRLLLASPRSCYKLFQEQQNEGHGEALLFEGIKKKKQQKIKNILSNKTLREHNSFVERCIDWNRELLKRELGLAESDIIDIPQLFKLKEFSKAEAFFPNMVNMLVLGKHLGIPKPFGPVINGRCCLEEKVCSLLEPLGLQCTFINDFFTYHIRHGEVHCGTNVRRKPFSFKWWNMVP

## Cc1c(-c2cc3ccc(C(C)(C)O)nc3n2CC2CC2)nn2cc(C(=O)N3CC4CCC3[C@@H]4N)ccc12 (stereo partly drawn) [Example 102, ((7R)-7-Amino-2-azabicyclo[2.2.1]heptan-2-yl)(2-(1-(cyclopropylmethyl)-6-(2-hydroxypropan-2-yl)-1H-pyrrolo[2,3-b]pyridin-2-yl)-3-methylpyrazolo[1,5-a]pyridin-6-yl)methanone]
  IC50: 12 nM

## Cc1c(-c2cc3ccc(C(C)(O)C(F)(F)F)nc3n2CC2CC2)nn2cc(C(=O)N3CC4CCC3[C@@H]4N)ccc12 (stereo partly drawn) [Example 103, ((7R)-7-Amino-2-azabicyclo[2.2.1]heptan-2-yl)(2-(1-(cyclopropylmethyl)-6-(1,1,1-trifluoro-2-hydroxypropan-2-yl)-1H-pyrrolo[2,3-b]pyridin-2-yl)-3-methylpyrazolo[1,5-a]pyridin-6-yl)methanone]
  IC50: 34 nM

## Cc1c(-c2cc3ccc(C(C)O)nc3n2CC2CC2)nn2cc(C(=O)N3CC4CCC3[C@@H]4N)ccc12 (stereo partly drawn) [Example 104, ((7R)-7-Amino-2-azabicyclo[2.2.1]heptan-2-yl)(2-(1-(cyclopropylmethyl)-6-(1-hydroxyethyl)-1H-pyrrolo[2,3-b]pyridin-2-yl)-3-methylpyrazolo[1,5-a]pyridin-6-yl)methanone]
  IC50: 25 nM

## Cc1c(-c2cc3ccc(C(C)(C)O)nc3n2CC2CC2)nn2cc(C(=O)N3C[C@H](N)C[C@@H](F)C3)ccc12 [Example 105, ((3R,5R)-3-Amino-5-fluoropiperidin-1-yl)(2-(1-(cyclopropylmethyl)-6-(2-hydroxypropan-2-yl)-1H-pyrrolo[2,3-b]pyridin-2-yl)-3-methylpyrazolo[1,5-a]pyridin-6-yl)methanone]
  IC50: 107 nM

## Cc1c(-c2cc3ccc(Cl)nc3n2CC2CC2)nn2cc(C(=O)N3CC4CCC3[C@@H]4N)cnc12 (stereo partly drawn) [Example 108, ((7R)-7-Amino-2-azabicyclo[2.2.1]heptan-2-yl)(2-(6-chloro-1-(cyclopropylmethyl)-1H-pyrrolo[2,3-b]pyridin-2-yl)-3-methylpyrazolo[1,5-a]pyrimidin-6-yl)methanone]
  IC50: 907 nM

## Cc1c(-c2cc3ccc(-c4cccc(O)c4F)nc3n2CC2CC2)nn2cc(C(=O)N3CC4CCC3[C@@H]4N)cnc12 (stereo partly drawn) [Example 109, ((7R)-7-Amino-2-azabicyclo[2.2.1]heptan-2-yl)(2-(1-(cyclopropylmethyl)-6-(2-fluoro-3-hydroxyphenyl)-1H-pyrrolo[2,3-b]pyridin-2-yl)-3-methylpyrazolo[1,5-a]pyrimidin-6-yl)methanone]
  IC50: 292 nM

## Cc1c(-c2cc3ccc(-c4ccc5c(c4)C(=O)NC5)nc3n2CC2CC2)nn2cc(C(=O)N3CC4CCC3[C@@H]4N)cnc12 (stereo partly drawn) [Example 110, 6-(2-(6-((7R)-7-Amino-2-azabicyclo[2.2.1]heptane-2-carbonyl)-3-methylpyrazolo[1,5-a]pyrimidin-2-yl)-1-(cyclopropylmethyl)-1H-pyrrolo[2,3-b]pyridin-6-yl)isoindolin-1-one]
  IC50: 1040 nM

## Cc1c(-c2cc3ccc(-c4ccc(O)c(F)c4)nc3n2CC2CC2)nn2cc(C(=O)N3CC4CCC3[C@@H]4N)cnc12 (stereo partly drawn) [Example 111, ((7R)-7-Amino-2-azabicyclo[2.2.1]heptan-2-yl)(2-(1-(cyclopropylmethyl)-6-(3-fluoro-4-hydroxyphenyl)-1H-pyrrolo[2,3-b]pyridin-2-yl)-3-methylpyrazolo[1,5-a]pyrimidin-6-yl)methanone]
  IC50: 15000 nM

## Cc1c(-c2cc3ccc(-c4ccc(C(N)=O)c(F)c4)nc3n2CC2CC2)nn2cc(C(=O)N3CC4CCC3[C@@H]4N)cnc12 (stereo partly drawn) [Example 112, 4-(2-(6-((7R)-7-Amino-2-azabicyclo[2.2.1]heptane-2-carbonyl)-3-methylpyrazolo[1,5-a]pyrimidin-2-yl)-1-(cyclopropylmethyl)-1H-pyrrolo[2,3-b]pyridin-6-yl)-2-fluorobenzamide]
  IC50: 572 nM

## COc1nc(C(=O)N2CC3CCC2[C@@H]3N)cn2nc(-c3cc4ccccc4n3CC3CC3)c(C)c12 (stereo partly drawn) [Example 113, ((7R)-7-Amino-2-azabicyclo[2.2.1]heptan-2-yl)(2-(1-(cyclopropylmethyl)-1H-indol-2-yl)-4-methoxy-3-methylpyrazolo[1,5-a]pyrazin-6-yl)methanone]
  IC50: 283 nM

## COc1nc(C(=O)N2C[C@H](N)C[C@@H](F)C2)cn2nc(-c3cc4ccccc4n3CC3CC3)c(C)c12 [Example 114, ((3R,5R)-3-Amino-5-fluoropiperidin-1-yl)(2-(1-(cyclopropylmethyl)-1H-indol-2-yl)-4-methoxy-3-methylpyrazolo[1,5-a]pyrazin-6-yl)methanone]
  IC50: 3980 nM

## COc1nc(C(=O)N2CC3CCC2[C@@H]3N)cn2nc(-c3cc4cccnc4n3CC3CC3)c(C)c12 (stereo partly drawn) [Example 115, ((7R)-7-Amino-2-azabicyclo[2.2.1]heptan-2-yl)(2-(1-(cyclopropylmethyl)-1H-pyrrolo[2,3-b]pyridin-2-yl)-4-methoxy-3-methylpyrazolo[1,5-a]pyrazin-6-yl)methanone]
  IC50: 3370 nM

## COc1nc(C(=O)N2CC3(CNC3)C2)cn2nc(-c3cc4cccnc4n3CC3CC3)c(C)c12 [Example 116, (2-(1-(Cyclopropylmethyl)-1H-pyrrolo[2,3-b]pyridin-2-yl)-4-methoxy-3-methylpyrazolo[1,5-a]pyrazin-6-yl)(2,6-diazaspiro[3.3]heptan-2-yl)methanone]
  IC50: 22800 nM

## COc1nc(C(=O)NC[C@H](F)CN)cn2nc(-c3cc4cccnc4n3CC3CC3)c(C)c12 [Example 117, (R)-N-(3-Amino-2-fluoropropyl)-2-(1-(cyclopropylmethyl)-1H-pyrrolo[2,3-b]pyridin-2-yl)-4-methoxy-3-methylpyrazolo[1,5-a]pyrazine-6-carboxamide]
  IC50: 15000 nM

## COc1cc(C(=O)N2CC3CCC2[C@@H]3N)cc2sc(-c3cc4ccccc4n3CC3CC3)c(C)c12 (stereo partly drawn) [Example 118, ((7R)-7-Amino-2-azabicyclo[2.2.1]heptan-2-yl)(2-(1-(cyclopropylmethyl)-1H-indol-2-yl)-4-methoxy-3-methylbenzo[b]thiophen-6-yl)methanone]
  IC50: 157 nM

## COc1cc(C(=O)N2CC3CCC2[C@@H]3N)cc2sc(-c3cc4cccnc4n3CC3CC3)c(C)c12 (stereo partly drawn) [Example 119, ((7R)-7-Amino-2-azabicyclo[2.2.1]heptan-2-yl)(2-(1-(cyclopropylmethyl)-1H-pyrrolo[2,3-b]pyridin-2-yl)-4-methoxy-3-methylbenzo[b]thiophen-6-yl)methanone]
  IC50: 84 nM

## COc1cc(C(=O)N2CC3CCC2[C@@H]3N)cc2sc(-c3cc4ccc(-c5ccc6c(c5)C(=O)NC6)cc4n3CC3CC3)c(C)c12 (stereo partly drawn) [Example 120, 6-(2-(6-((7R)-7-Amino-2-azabicyclo[2.2.1]heptane-2-carbonyl)-4-methoxy-3-methylbenzo[b]thiophen-2-yl)-1-(cyclopropylmethyl)-1H-indol-6-yl)isoindolin-1-one]
  IC50: 250 nM

## COc1cc(C(=O)N2CC3CCC2[C@@H]3N)cc2sc(-c3cc4ccc(-c5cccc(O)c5F)cc4n3CC3CC3)c(C)c12 (stereo partly drawn) [Example 121, ((7R)-7-Amino-2-azabicyclo[2.2.1]heptan-2-yl)(2-(1-(cyclopropylmethyl)-6-(2-fluoro-3-hydroxyphenyl)-1H-indol-2-yl)-4-methoxy-3-methylbenzo[b]thiophen-6-yl)methanone]
  IC50: 1500 nM

## COc1cc(C(=O)N2CC3CCC2[C@@H]3N)cc2sc(-c3cc4ccc(-c5ccn6c(C)nnc6c5)cc4n3CC3CC3)c(C)c12 (stereo partly drawn) [Example 122, ((7R)-7-Amino-2-azabicyclo[2.2.1]heptan-2-yl)(2-(1-(cyclopropylmethyl)-6-(3-methyl-[1,2,4]triazolo[4,3-a]pyridin-7-yl)-1H-indol-2-yl)-4-methoxy-3-methylbenzo[b]thiophen-6-yl)methanone]
  IC50: 68 nM

## COc1cc(C(=O)N2CC3CCC2[C@@H]3N)cc2sc(-c3cc4ccc(-c5ccc(C(N)=O)c(Cl)c5)cc4n3CC3CC3)c(C)c12 (stereo partly drawn) [Example 125, 4-(2-(6-((7R)-7-Amino-2-azabicyclo[2.2.1]heptane-2-carbonyl)-4-methoxy-3-methylbenzo[b]thiophen-2-yl)-1-(cyclopropylmethyl)-1H-indol-6-yl)-2-chlorobenzamide]
  IC50: 413 nM

## COc1cc(C(=O)N2CC3CCC2[C@@H]3N)cc2sc(-c3cc4ccc(-c5ccc6c(c5)CNC6=O)cc4n3CC3CC3)c(C)c12 (stereo partly drawn) [Example 126, 5-(2-(6-((7R)-7-Amino-2-azabicyclo[2.2.1]heptane-2-carbonyl)-4-methoxy-3-methylbenzo[b]thiophen-2-yl)-1-(cyclopropylmethyl)-1H-indol-6-yl)isoindolin-1-one]
  IC50: 122 nM

## COc1cc(C(=O)N2CC3CCC2[C@@H]3N)cc2sc(-c3cc4ccc(C)cc4n3CC3CC3)c(C)c12 (stereo partly drawn) [Example 127, ((7R)-7-Amino-2-azabicyclo[2.2.1]heptan-2-yl)(2-(1-(cyclopropylmethyl)-6-methyl-1H-indol-2-yl)-4-methoxy-3-methylbenzo[b]thiophen-6-yl)methanone]
  IC50: 98 nM

## COc1cc(C(=O)N2CC3CCC2[C@@H]3N)cc2sc(-c3cc4ccc(-c5cccc(F)c5C)cc4n3CC3CC3)c(C)c12 (stereo partly drawn) [Example 128, ((7R)-7-Amino-2-azabicyclo[2.2.1]heptan-2-yl)(2-(1-(cyclopropylmethyl)-6-(3-fluoro-2-methylphenyl)-1H-indol-2-yl)-4-methoxy-3-methylbenzo[b]thiophen-6-yl)methanone]
  IC50: 4340 nM

## COc1cc(-c2ccc3cc(-c4sc5cc(C(=O)N6CC7CCC6[C@@H]7N)cc(OC)c5c4C)n(CC4CC4)c3c2)ccn1 (stereo partly drawn) [Example 129, ((7R)-7-Amino-2-azabicyclo[2.2.1]heptan-2-yl)(2-(1-(cyclopropylmethyl)-6-(2-methoxypyridin-4-yl)-1H-indol-2-yl)-4-methoxy-3-methylbenzo[b]thiophen-6-yl)methanone]
  IC50: 376 nM
